# According to patent publication US20240067693A1, “POLYPEPTIDES AND USES THEREOF” (MEDIMMUNE LIMITED, priority 2020, published 2024):
# Numbered stars: 1 amine (or outer) side, 2 acyl side, 3 side chain; on linkers, the order of the positions; unused ones are H or OH. Bridge positions count the residues as written; N and C are the ends. Square brackets hold non-standard residues; d marks the D form. Side chains are listed from the residue outwards. Peptide text beside a SMILES is read from it. * marks the point of attachment. C18 diacid = O=C(O)CCCCCCCCCCCCCCCCC(=O)*; γGlu = O=C(O)[C@H](CCC(=O)[*:2])N[*:1]; αMeF = C[C@](N)(Cc1ccccc1)C(=O)O; Aib = CC(C)(N)C(=O)O
# Tests used:
# [1] = target: T1, human amylin receptor (calcitonin receptor co-expressed with receptor activity modifying protein, RAMP3) (hAMYR3) (Homo sapiens, UniProt O60896+P30988); test: cAMP production in 1321N1 cells with stable recombinant expression of human amylin receptor (hAMYR3); type: cell-based; conditions: for Ratio (selectivity hAMYR vs hCTR, ratio of EC50 values at the two receptors): EC50 hCTR / EC50 hAMYR3; for EC50: cAMP, 1321N1 cells, assay buffer with 0.1% BSA, read-out: EC50 (pM) hAMYR3
# T1 construct: expressed in transfected cells
# T1 sequence (P30988 25-474): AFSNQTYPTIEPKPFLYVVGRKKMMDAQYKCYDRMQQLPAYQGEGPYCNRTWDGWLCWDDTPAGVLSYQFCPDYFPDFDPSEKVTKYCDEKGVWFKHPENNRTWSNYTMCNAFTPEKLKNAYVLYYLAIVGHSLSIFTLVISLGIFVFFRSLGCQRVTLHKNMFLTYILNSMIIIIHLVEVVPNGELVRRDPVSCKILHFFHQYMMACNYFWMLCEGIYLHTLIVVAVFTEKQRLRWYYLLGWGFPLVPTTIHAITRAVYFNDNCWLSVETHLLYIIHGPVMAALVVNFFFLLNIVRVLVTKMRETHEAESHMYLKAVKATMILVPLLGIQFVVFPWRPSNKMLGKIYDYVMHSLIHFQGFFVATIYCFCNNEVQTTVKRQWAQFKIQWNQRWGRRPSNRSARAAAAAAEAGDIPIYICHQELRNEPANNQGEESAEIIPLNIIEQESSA
# T1 sequence (O60896 24-148 partner): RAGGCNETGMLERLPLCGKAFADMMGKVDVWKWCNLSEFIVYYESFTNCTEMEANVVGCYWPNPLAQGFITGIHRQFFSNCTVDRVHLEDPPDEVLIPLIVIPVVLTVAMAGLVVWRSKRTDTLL
# Summary of the method: (§1)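 EC50 values come from 4-parameter logistic fits of HTRF cAMP signal, normalised to maximal calcitonin or amylin effect. Peptides were tested in duplicate for 30 min at RT in IBMX-containing (0.5 mM) BSA/HEPES buffer pH 7.4 on stable 1321N1 (human CTR, AMYR3) or HEK (rat CTR, AMYR3) lines.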
# [2] = target: T2, human calcitonin receptor (hCTR) (Homo sapiens, UniProt P30988); test: cAMP production in 1321N1 cells with stable recombinant expression of human calcitonin receptor (hCTR); type: cell-based; conditions: cAMP, 1321N1 cells, assay buffer with 0.1% BSA; read-out: EC50 (pM) hCTR
# T2 construct: expressed in transfected cells
# T2 sequence (P30988 25-474): T1 sequence (P30988 25-474)
# Summary of the method: as §1
Structure (SMILES),"Ratio (selectivity hAMYR vs hCTR, ratio of EC50 values at the two receptors) [1]",EC50 [1] [pM],EC50 [2] [pM]
"CC[C@H](C)[C@H](NC(=O)[C@@H]1CCCN1C(=O)CNC(=O)[C@H](Cc1ccccc1)NC(=O)[C@H](CC(N)=O)NC(=O)C(C)(C)NC(=O)[C@H](CO)NC(=O)[C@H](CO)NC(=O)[C@H](Cc1c[nH]cn1)NC(=O)[C@@H](NC(=O)[C@H](CC(C)C)NC(=O)[C@H](Cc1ccccc1)NC(=O)[C@H](CC(N)=O)NC(=O)[C@H](C)NC(=O)[C@H](CC(C)C)NC(=O)[C@H](CCCNC(=N)N)NC(=O)[C@H](CCC(N)=O)NC(=O)[C@@H](NC(=O)[C@H](C)NC(=O)[C@@H]1CSSC[C@H](NC(=O)[C@@H](N)CCCCNC(=O)CC[C@H](NC(=O)CC[C@H](NC(=O)CCCCCCCCCCCCCCCCC(=O)O)C(=O)O)C(=O)O)C(=O)N[C@@H](CC(N)=O)C(=O)N[C@@H]([C@@H](C)O)C(=O)N[C@@H](C)C(=O)N[C@@H]([C@@H](C)O)C(=O)N1)[C@@H](C)O)C(C)C)C(=O)N[C@@H](CC(C)C)C(=O)N1CCC[C@H]1C(=O)N1CCC[C@H]1C(=O)N[C@H](C(=O)N[C@@H](CC(N)=O)C(=O)N[C@H](C(=O)NCC(=O)N[C@@H](CO)C(=O)N[C@@H](CCCNC(=N)N)C(=O)N[C@H](C(=O)N[C@@H](Cc1ccc(O)cc1)C(N)=O)[C@@H](C)O)C(C)C)[C@@H](C)O [Peptide 72, K(γE-γE-C18diacid)[CNTATC]ATQRLANFLVHSS(Aib)NFGPILPPTNVGSRTY-amide] (H-K([γGlu-γGlu-C18 diacid])CNTATCATQRLANFLVHSS[Aib]NFGPILPPTNVGSRTY-NH2; disulfide 2-7; N-terminus assumed)",18,227,4000
"CC[C@H](C)[C@H](NC(=O)[C@@H]1CCCN1C(=O)CNC(=O)[C@](C)(Cc1ccccc1)NC(=O)[C@H](CC(N)=O)NC(=O)[C@H](CC(N)=O)NC(=O)[C@H](CO)NC(=O)[C@H](CO)NC(=O)[C@H](Cc1c[nH]cn1)NC(=O)C(C)(C)NC(=O)[C@H](CC(C)C)NC(=O)[C@H](Cc1ccccc1)NC(=O)[C@H](CC(N)=O)NC(=O)[C@H](C)NC(=O)[C@H](CC(C)C)NC(=O)[C@H](CCCNC(=N)N)NC(=O)[C@H](CCC(N)=O)NC(=O)[C@@H](NC(=O)[C@H](C)NC(=O)[C@@H]1CSSC[C@H](NC(=O)[C@@H](N)CCCCNC(=O)CC[C@H](NC(=O)CC[C@H](NC(=O)CCCCCCCCCCCCCCCCC(=O)O)C(=O)O)C(=O)O)C(=O)N[C@@H](CC(N)=O)C(=O)N[C@@H]([C@@H](C)O)C(=O)N[C@@H](C)C(=O)N[C@@H]([C@@H](C)O)C(=O)N1)[C@@H](C)O)C(=O)N[C@@H](CC(C)C)C(=O)N1CCC[C@H]1C(=O)N1CCC[C@H]1C(=O)N[C@H](C(=O)N[C@@H](CC(N)=O)C(=O)N[C@H](C(=O)NCC(=O)N[C@@H](CO)C(=O)N[C@@H](CC(N)=O)C(=O)N[C@H](C(=O)N[C@@H](Cc1ccc(O)cc1)C(N)=O)[C@@H](C)O)C(C)C)[C@@H](C)O [Peptide 26, K(γE-γE-C18diacid)[CNTATC]ATQRLANFL(Aib)HSSNN(αMePhe)GPILPPTNVGSNTY-amide] (H-K([γGlu-γGlu-C18 diacid])CNTATCATQRLANFL[Aib]HSSNN[αMeF]GPILPPTNVGSNTY-NH2; disulfide 2-7)",7,409,2800
CC[C@H](C)[C@H](NC(=O)[C@@H]1CCCN1C(=O)CNC(=O)[C@H](Cc1ccccc1)NC(=O)[C@H](CC(N)=O)NC(=O)[C@H](CC(N)=O)NC(=O)[C@H](CO)NC(=O)[C@H](CO)NC(=O)[C@H](Cc1c[nH]cn1)NC(=O)C(C)(C)NC(=O)[C@H](CC(C)C)NC(=O)[C@H](Cc1ccccc1)NC(=O)[C@H](CC(N)=O)NC(=O)[C@H](C)NC(=O)[C@H](CC(C)C)NC(=O)[C@H](CCCNC(=N)N)NC(=O)[C@H](CCC(N)=O)NC(=O)[C@@H](NC(=O)[C@H](C)NC(=O)[C@@H]1CSSC[C@H](NC(=O)[C@H](CCCCN)NC(=O)CNC(=O)CNC(=O)[C@@H](N)CCCCNC(=O)CC[C@H](NC(=O)CCCCCCCCCCCCCCCCC(=O)O)C(=O)O)C(=O)N[C@@H](CC(N)=O)C(=O)N[C@@H]([C@@H](C)O)C(=O)N[C@@H](C)C(=O)N[C@@H]([C@@H](C)O)C(=O)N1)[C@@H](C)O)C(=O)N[C@@H](CC(C)C)C(=O)N1CCC[C@H]1C(=O)N1CCC[C@H]1C(=O)N[C@H](C(=O)N[C@@H](CC(N)=O)C(=O)N[C@H](C(=O)NCC(=O)N[C@@H](CO)C(=O)N[C@@H](CC(N)=O)C(=O)N[C@H](C(=O)N[C@@H](Cc1ccc(O)cc1)C(N)=O)[C@@H](C)O)C(C)C)[C@@H](C)O [Peptide 143] (H-K([γGlu-C18 diacid])GGKCNTATCATQRLANFL[Aib]HSSNNFGPILPPTNVGSNTY-NH2; disulfide 5-10; N-terminus assumed),11.7,592,6940
"CC(C)C[C@H](NC(=O)[C@H](CCCNC(=N)N)NC(=O)[C@H](CCC(N)=O)NC(=O)[C@@H](NC(=O)[C@H](C)NC(=O)[C@@H]1CSSC[C@H](NC(=O)[C@H](CCCCN)NC(=O)[C@@H](N)CCCCNC(=O)CC[C@H](NC(=O)CCCCCCCCCCCCCCCCC(=O)O)C(=O)O)C(=O)N[C@@H](CC(N)=O)C(=O)N[C@@H]([C@@H](C)O)C(=O)N[C@@H](C)C(=O)N[C@@H]([C@@H](C)O)C(=O)N1)[C@@H](C)O)C(=O)N[C@@H](C)C(=O)N[C@@H](CC(N)=O)C(=O)N[C@@H](Cc1ccccc1)C(=O)N[C@@H](CC(C)C)C(=O)N[C@@H](CCCNC(=N)N)C(=O)N[C@@H](Cc1c[nH]cn1)C(=O)N[C@@H](CO)C(=O)N[C@@H](CO)C(=O)N[C@@H](CC(N)=O)C(=O)N[C@@H](CC(N)=O)C(=O)N[C@@H](Cc1ccccc1)C(=O)NCC(=O)N1CCC[C@H]1C(=O)NC(C)(C)C(=O)N[C@@H](CC(C)C)C(=O)N1CCC[C@H]1C(=O)N1CCC[C@H]1C(=O)N[C@H](C(=O)N[C@@H](CC(N)=O)C(=O)N[C@H](C(=O)NCC(=O)N[C@@H](CO)C(=O)N[C@@H](CC(N)=O)C(=O)N[C@H](C(=O)N[C@@H](Cc1ccc(O)cc1)C(N)=O)[C@@H](C)O)C(C)C)[C@@H](C)O [Peptide 107, K(γE-C18diacid)K[CNTATC]ATQRLANFLRHSSNNFGP(Aib)LPPTNVGSNTY-amide] (H-K([γGlu-C18 diacid])KCNTATCATQRLANFLRHSSNNFGP[Aib]LPPTNVGSNTY-NH2; disulfide 3-8; N-terminus assumed)",25,1070,26300
